# From US10828305B2 (SHANGHAI PHARMACEUTICALS HOLDING CO., LTD., priority 2016, dated 2020)
# Assays:
# [1] = biological target: ErbB2 kinase (Homo sapiens, UniProt P04626); assay: Enzymatic experiment on ErbB2 (HTRF kinEASE-TK); type: biochemical; conditions: ATP 4 μM; read-out: Kinase IC50 (nM) in vitro ErbB2
# How it was run: (§1)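 HTRF kinEASE-TK with biotinylated TK substrate in HEPES pH 7.0 buffer containing MnCl2, MgCl2 and DTT; ErbB2 at 0.06 ng/μl with 4 μM ATP, EGFR at 0.06 units/μl with 1.65 μM ATP, 30 min at room temperature after 5 min enzyme/substrate–compound preincubation. Ten-point 3-fold dilutions; Eu antibody/SA-XL665 detection, 665/620 ratio.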
# [2] = biological target: EGFR kinase (Homo sapiens, UniProt P00533); assay: Enzymatic experiment on EGFR (HTRF kinEASE-TK); type: biochemical; conditions: ATP 1.65 μM; read-out: Kinase IC50 (nM) in vitro EGFR
# How it was run: as §1
# EGFR kinase, sequence (P00533 25-1210): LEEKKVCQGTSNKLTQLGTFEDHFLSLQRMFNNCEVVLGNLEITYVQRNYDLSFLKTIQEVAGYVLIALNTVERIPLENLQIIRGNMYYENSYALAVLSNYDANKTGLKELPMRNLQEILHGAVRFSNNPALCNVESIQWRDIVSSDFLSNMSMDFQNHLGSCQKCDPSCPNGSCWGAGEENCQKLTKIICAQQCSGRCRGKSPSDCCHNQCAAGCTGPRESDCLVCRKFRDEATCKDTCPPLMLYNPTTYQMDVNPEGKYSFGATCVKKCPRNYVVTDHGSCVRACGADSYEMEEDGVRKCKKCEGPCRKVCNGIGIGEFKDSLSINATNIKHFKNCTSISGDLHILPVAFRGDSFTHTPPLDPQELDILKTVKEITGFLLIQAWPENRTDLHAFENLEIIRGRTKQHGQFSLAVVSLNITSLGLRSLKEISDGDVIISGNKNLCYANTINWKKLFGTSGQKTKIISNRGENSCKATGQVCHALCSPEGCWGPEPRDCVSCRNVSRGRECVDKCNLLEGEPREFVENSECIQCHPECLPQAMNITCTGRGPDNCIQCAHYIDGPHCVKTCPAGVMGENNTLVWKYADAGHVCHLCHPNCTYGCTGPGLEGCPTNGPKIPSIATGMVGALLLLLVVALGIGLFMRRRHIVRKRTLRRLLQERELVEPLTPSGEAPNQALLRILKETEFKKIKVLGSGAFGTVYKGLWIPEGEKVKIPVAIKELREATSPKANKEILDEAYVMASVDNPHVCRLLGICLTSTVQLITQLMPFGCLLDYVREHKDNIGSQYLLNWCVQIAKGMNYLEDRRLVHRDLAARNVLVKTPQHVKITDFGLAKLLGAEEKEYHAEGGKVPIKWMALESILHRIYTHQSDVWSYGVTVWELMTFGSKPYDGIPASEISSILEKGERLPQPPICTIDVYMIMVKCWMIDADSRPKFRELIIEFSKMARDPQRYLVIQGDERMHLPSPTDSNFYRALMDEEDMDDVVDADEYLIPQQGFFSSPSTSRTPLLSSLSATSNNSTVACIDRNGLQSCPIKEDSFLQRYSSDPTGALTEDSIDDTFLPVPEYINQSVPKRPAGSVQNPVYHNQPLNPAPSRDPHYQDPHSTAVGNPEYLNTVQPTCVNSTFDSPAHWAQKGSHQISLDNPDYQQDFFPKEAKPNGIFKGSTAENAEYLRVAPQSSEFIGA
# ErbB2 kinase, sequence (P04626 23-1255): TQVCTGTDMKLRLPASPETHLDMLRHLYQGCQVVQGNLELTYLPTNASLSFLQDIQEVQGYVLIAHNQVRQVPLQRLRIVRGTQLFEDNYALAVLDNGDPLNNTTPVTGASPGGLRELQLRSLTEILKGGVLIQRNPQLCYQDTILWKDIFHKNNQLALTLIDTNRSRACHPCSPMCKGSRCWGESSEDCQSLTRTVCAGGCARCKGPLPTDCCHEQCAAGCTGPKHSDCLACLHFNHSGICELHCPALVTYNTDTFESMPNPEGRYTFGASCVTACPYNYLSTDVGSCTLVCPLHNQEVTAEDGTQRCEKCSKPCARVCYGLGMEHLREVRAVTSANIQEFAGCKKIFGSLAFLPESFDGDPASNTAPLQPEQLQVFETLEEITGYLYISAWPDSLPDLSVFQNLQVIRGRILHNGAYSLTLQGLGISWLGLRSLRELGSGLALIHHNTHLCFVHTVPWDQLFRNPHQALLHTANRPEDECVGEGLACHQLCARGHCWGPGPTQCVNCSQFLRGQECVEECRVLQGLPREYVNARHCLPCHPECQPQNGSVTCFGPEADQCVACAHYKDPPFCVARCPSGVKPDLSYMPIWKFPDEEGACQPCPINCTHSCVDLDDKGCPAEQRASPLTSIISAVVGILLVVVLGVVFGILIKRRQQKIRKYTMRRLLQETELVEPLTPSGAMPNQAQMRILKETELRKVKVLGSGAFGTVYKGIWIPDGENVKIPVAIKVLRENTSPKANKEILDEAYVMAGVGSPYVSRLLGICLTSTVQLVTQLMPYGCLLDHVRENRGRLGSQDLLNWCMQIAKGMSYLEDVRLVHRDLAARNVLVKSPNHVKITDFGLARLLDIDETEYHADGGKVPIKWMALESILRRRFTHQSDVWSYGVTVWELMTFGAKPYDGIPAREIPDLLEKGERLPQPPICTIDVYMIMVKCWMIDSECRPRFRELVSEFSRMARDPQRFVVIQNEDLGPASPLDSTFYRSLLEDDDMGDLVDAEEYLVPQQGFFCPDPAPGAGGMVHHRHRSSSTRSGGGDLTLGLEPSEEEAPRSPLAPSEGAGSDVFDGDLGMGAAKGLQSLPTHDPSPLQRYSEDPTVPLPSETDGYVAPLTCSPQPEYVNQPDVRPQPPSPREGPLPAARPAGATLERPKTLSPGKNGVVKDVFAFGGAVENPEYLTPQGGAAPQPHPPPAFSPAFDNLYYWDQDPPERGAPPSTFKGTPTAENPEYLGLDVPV
structure (smiles),measurement,setting,value
"Cc1cc(Nc2ncnc3ccc(NC4=NC(C)(C)CO4)cc23)ccc1Oc1cc2nncn2cn1 [Embodiment 4, N^4-(4-([1,2,4]triazolo[4,3-c]pyrimidin-7-yloxy)-3-methylphenyl)-N^6-(4,4-dimethyl-4,5-dihydrooxazol-2-yl)quinazoline-4,6-diamine]",IC50,[1],2.4 nM
same,IC50,[2],44.3 nM
